According to patent US12312332B2 (Merck Sharp & Dohme LLC., priority 2019, dated 2025):

Target: T1, human OX2R (Homo sapiens, UniProt O43614)
T1 construct: expressed in transfected cells; host or cells: Chinese hamster ovary (CHO) cells, kept under G418 selection
T1 sequence (O43614 1-444): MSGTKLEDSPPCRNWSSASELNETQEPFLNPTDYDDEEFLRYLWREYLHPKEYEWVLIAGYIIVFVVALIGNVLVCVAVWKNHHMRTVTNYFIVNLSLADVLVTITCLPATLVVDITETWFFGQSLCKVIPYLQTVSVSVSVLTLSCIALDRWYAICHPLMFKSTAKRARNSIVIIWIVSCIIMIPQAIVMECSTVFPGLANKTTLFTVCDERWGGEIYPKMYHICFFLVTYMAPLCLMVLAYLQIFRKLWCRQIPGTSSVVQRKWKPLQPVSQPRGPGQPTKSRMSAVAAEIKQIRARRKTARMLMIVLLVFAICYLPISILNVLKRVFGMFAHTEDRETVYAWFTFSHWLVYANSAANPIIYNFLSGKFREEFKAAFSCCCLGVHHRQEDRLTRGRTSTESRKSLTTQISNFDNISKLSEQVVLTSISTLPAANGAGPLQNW
Assay: IPOne (IP-One) orexin receptor agonist assay in CHO cells expressing human OX2R
Type: cell-based
Conditions: for EC50: CHO cells expressing human OX2R, IP-One detection, 2 hours incubation, four parameter logistic fit, read-out: OX2R Potency, EC50; for % max agonist effect (Emax): human OX2R, percentage of sample raw value/mean max effect (reference compound at 1 uM with 100% activity)
Description: The utility of the compounds in accordance with the present invention as orexin receptor OX1R and/or OX2R agonists may be readily determined without undue experimentation by methodology well known in the art. Both the OX1R and/or OX2R G-coupled protein receptors (GPCRs) couple through the Gaq signaling pathway, which ultimately promotes calcium mobilization via inositol triphosphate (IP3) production. […] The utility of the compounds in accordance with the present invention as orexin receptor OX1R and/or OX2R agonists may be determined utilizing this assay.
In a typical experiment, the OX1 and OX2 receptor agonist activity is determined in accordance with the following general experimental method. Chinese hamster ovary (CHO) cells expressing human OX1R and/or the human OX2R were grown in Iscove's modified DMEM containing glutaMAX™, 1% G418, 100 U/mL penicillin, 100 μg/mL streptomycin and 10% heat-inactivated qualified fetal bovine serum (FBS). […] During this incubation, IP-one detection reagents were prepared (38:1:1 lysis buffer:D2:AB-cryptate reagents).
For each compound, data were fit to a four parameter logistic fit (ActivityBase software) and the EC50 was reported as the inflection point of the resulting curve. Percent effect for each test compound was determined as the percentage of sample raw value/mean max effect, where the mean max effect was derived from the mean raw value of 32 control wells per assay plate (using Orexin A (cat #003-30) at 1 μM for human OX1R and a reference compound at 1 uM with 100% activity previously established by comparison to Orexin A for human OX2R). The intrinsic orexin receptor agonist activity of a compound which may be used in the present invention may be determined by these assays.

EC50 [nM] | % max agonist effect (Emax) [%] | SMILES
0.8 | 100.4 | CS(=O)(=O)N[C@H]1CCN(c2cc(O)ccn2)[C@H]1CO[C@H]1CC[C@@H](c2ccccc2)CC1 [Example 75, N-((2R,3S)-1-(4-hydroxypyridin-2-yl)-2-((((CIS)-4-phenylcyclohexyl)oxy)methyl)pyrrolidin-3-yl)methanesulfonamide]
0.3 | 99.6 | C[C@@H]1C[C@H](NS(=O)(=O)N(C)C)[C@H](CO[C@H]2CC[C@@H](c3cccc(F)c3)CC2)N1c1cc(O)c(F)cn1 [Example 94, N′-((2R,3S,5R)-1-(5-fluoro-4-hydroxypyridin-2-yl)-2-((((CIS)-4-(3-fluorophenyl)cyclohexyl)oxy)methyl)-5-methylpyrrolidin-3-yl)-N,N-dimethyl-sulfamide]
1820 | 95.6 | CS(=O)(=O)N[C@H]1CCN(c2cc(C(F)F)ccn2)[C@H]1CO[C@H]1CC[C@@H](c2ccccc2)CC1 [Example 143, N-((2R,3S)-1-(4-(difluoromethyl)pyridin-2-yl)-2-((((CIS)-4-phenylcyclohexyl)oxy)methyl)pyrrolidin-3-yl)methanesulfonamide]
> 10000 | 7.9 | CS(=O)(=O)N[C@H]1CCN(c2ccc(C(F)(F)F)cc2)[C@H]1CO[C@H]1CC[C@@H](c2ccccc2)CC1 (relative stereo) [Example 3, N-((CIS)-2-((((CIS)-4-phenylcyclohexyl)oxy)methyl)-1-(4-(trifluoromethyl)phenyl)pyrrolidin-3-yl)methanesulfonamide]
613 | 98.4 | CS(=O)(=O)N[C@H]1CCN(c2occc2C#N)[C@H]1CO[C@H]1CC[C@@H](c2ccccc2)CC1 [Example 39, N-((2R,3 S)-1-(3-cyanofuran-2-yl)-2-((((CIS)-4-phenylcyclohexyl)oxy)methyl)pyrrolidin-3-yl)methanesulfonamide]
662 | 97.4 | CN(C)c1ccnc(N2CC[C@H](NS(C)(=O)=O)[C@@H]2CO[C@H]2CC[C@@H](c3ccccc3)CC2)c1 [Example 74, N-((2R,3S)-1-(4-(dimethylamino)pyridin-2-yl)-2-((((CIS)-4-phenylcyclohexyl)oxy)methyl)pyrrolidin-3 - yl)methanesulfonamide]
10500 | 68.8 | Cc1nnc(-c2ccc(N3CC[C@H](NS(C)(=O)=O)[C@@H]3CO[C@H]3CC[C@@H](c4ccccc4)CC3)cc2)o1 (relative stereo) [Example 12, N-((CIS)-1-(4-(5-methyl-1,3,4-oxadiazol-2-yl)phenyl)-2-((((CIS)-4-phenylcyclohexyl)oxy)methyl)pyrrolidin-3-yl)methanesulfonamide]
38.3 | 101 | CS(=O)(=O)N[C@H]1CCN(c2cnccc2O)[C@H]1CO[C@H]1CC[C@@H](c2ccccc2)CC1 [Example 122, N-((2R,3S)-1-(4-hydroxypyridin-3-yl)-2-((((CIS)-4-phenylcyclohexyl)oxy)methyl)pyrrolidin-3-yl)methanesulfonamide]
7.1 | 100.2 | COc1cccnc1N1CC[C@H](NS(C)(=O)=O)[C@@H]1CO[C@H]1CC[C@@H](c2ccccc2)CC1 [Example 141, N-((2R,3S)-1-(3-methoxypyridin-2-yl)-2-((((CIS)-4-phenylcyclohexyl)oxy)methyl)pyrrolidin-3-yl)methanesulfonamide]
0.45 | 100.8 | C[C@@H]1C[C@H](NS(=O)(=O)N(C)C)[C@H](CO[C@H]2CC[C@@H](c3cccc(F)c3)CC2)N1c1nccc(O)c1F [Example 156, N′-((2R,3S,5R)-1-(3-fluoro-4-hydroxypyridin-2-yl)-2-((((CIS)-4-(3-fluorophenyl)cyclohexyl)oxy)methyl)-5-methylpyrrolidin-3-yl)-N,N-dimethyl-sulfamide]
150 | 100.2 | CS(=O)(=O)N[C@H]1CCN(c2ncccc2C(F)F)[C@H]1CO[C@H]1CC[C@@H](c2ccccc2)CC1 [Example 124, N-((2R,3S)-1-(3-(difluoromethyl)pyridin-2-yl)-2-((((CIS)-4-phenylcyclohexyl)oxy)methyl)pyrrolidin-3-yl)methanesulfonamide]
163 | 99.3 | CS(=O)(=O)N[C@H]1CCN(c2cccc(=O)[nH]2)[C@H]1CO[C@H]1CC[C@@H](c2ccccc2)CC1 [Example 148, N-((2R,3S)-1-(6-oxo-1,6-dihydropyridin-2-yl)-2-((((CIS)-4-phenylcyclohexyl)oxy)methyl)pyrrolidin-3-yl)methanesulfonamide]
146 | 101.0 | CS(=O)(=O)N[C@H]1CCN(c2ncns2)[C@H]1CO[C@H]1CC[C@@H](c2ccccc2)CC1 [Example 33, N-((2R,3S)-2-((((CIS)-4-phenylcyclohexyl)oxy)methyl)-1-(1,2,4-thiadiazol-5-yl)pyrrolidin-3-yl)methanesulfonamide]
33.7 | 101.6 | Cn1ncnc1N1CC[C@H](NS(C)(=O)=O)[C@@H]1CO[C@H]1CC[C@@H](c2ccccc2)CC1 [Example 15, N-((2R,3S)-1-(1-methyl-1H-1,2,4-triazol-5-yl)-2-((((CIS)-4-phenylcyclohexyl)oxy)methyl)pyrrolidin-3-yl)methanesulfonamide]
> 10000 | 22.0 | CC(C)(O)c1cc(N2CC[C@H](NS(C)(=O)=O)[C@@H]2CO[C@H]2CC[C@@H](c3ccccc3)CC2)ccn1 [Example 44, N-((2R,3S)-1-(2-(2-hydroxypropan-2-yl)pyridin-4-yl)-2-((((CIS)-4-phenylcyclohexyl)oxy)methyl)pyrrolidin-3-yl)methanesulfonamide]
1700 | 98.0 | Cc1sc(N2CC[C@H](NS(C)(=O)=O)[C@@H]2CO[C@H]2CC[C@@H](c3ccccc3)CC2)nc1Br [Example 106, N-((2R,3S)-1-(4-bromo-5-methylthiazol-2-yl)-2-((((CIS)-4-phenylcyclohexyl)oxy)methyl)pyrrolidin-3-yl)methanesulfonamide]
2410 | 93.7 | COc1ccnc(N2CC[C@H](NS(C)(=O)=O)[C@@H]2CO[C@H]2CC[C@@H](c3ccccc3)CC2)c1F [Example 115, N-((2R,3S)-1-(3-fluoro-4-methoxypyridin-2-yl)-2-((((CIS)-4-phenylcyclohexyl)oxy)methyl)pyrrolidin-3-yl)methanesulfonamide]
134 | 100.9 | CS(=O)(=O)N[C@H]1CCN(c2cncnc2)[C@H]1CO[C@H]1CC[C@@H](c2ccccc2)CC1 [Example 42, N-((2R,3S)-2-((((CIS)-4-phenylcyclohexyl)oxy)methyl)-1-(pyrimidin-5-yl)pyrrolidin-3-yl)methanesulfonamide]
217 | 99.6 | CS(=O)(=O)N[C@H]1CCN(c2cncc(CO)c2)[C@H]1CO[C@H]1CC[C@@H](c2ccccc2)CC1 [Example 49, N-((2R,3S)-1-(5-(hydroxymethyl)pyridin-3-yl)-2-((((CIS)-4-phenylcyclohexyl)oxy)methyl)pyrrolidin-3-yl)methanesulfonamide]
16.9 | 101.1 | CS(=O)(=O)N[C@H]1CCN(c2cnccc2C(F)F)[C@H]1CO[C@H]1CC[C@@H](c2ccccc2)CC1 [Example 121, N-((2R,3S)-1-(4-(difluoromethyl)pyridin-3-yl)-2-((((CIS)-4-phenylcyclohexyl)oxy)methyl)pyrrolidin-3-yl)methanesulfonamide]
1410 | 97.2 | Cc1cc(N2CC[C@H](NS(C)(=O)=O)[C@@H]2CO[C@H]2CC[C@@H](c3ccccc3)CC2)cnc1CO [Example 45, N-((2R,3S)-1-(6-(hydroxymethyl)-5-methylpyridin-3-yl)-2-((((CIS)-4-phenylcyclohexyl)oxy)methyl)pyrrolidin-3-yl)methanesulfonamide]
70 | 99.6 | CS(=O)(=O)N[C@H]1CCN(c2ccc(C(F)(F)F)nc2)[C@H]1CO[C@H]1CC[C@@H](c2ccccc2)CC1 [Example 34, N-((2R,3S)-2-((((CIS)-4-phenylcyclohexyl)oxy)methyl)-1-(6-(trifluoromethyl)pyridin-3-yl)pyrrolidin-3-yl)methanesulfonamide]
